Tests used:
[1] = target: Dual specificity mitogen-activated protein kinase kinase 1 (Homo sapiens) (UniProt Q02750); experiment: Residual activity of wild type MEK1 at 10 uM by microplate scintillation counting
[2] = target: Mitogen-activated protein kinase 14 (Homo sapiens) (UniProt Q16539); experiment: Residual activity of p38alpha at 10 uM by microplate scintillation counting
[3] = target: T1, Discoidin domain-containing receptor 2 (Homo sapiens) (UniProt Q16832); experiment: Residual activity of DDR2 at 10 uM by microplate scintillation counting
T1 sequence (whole entry): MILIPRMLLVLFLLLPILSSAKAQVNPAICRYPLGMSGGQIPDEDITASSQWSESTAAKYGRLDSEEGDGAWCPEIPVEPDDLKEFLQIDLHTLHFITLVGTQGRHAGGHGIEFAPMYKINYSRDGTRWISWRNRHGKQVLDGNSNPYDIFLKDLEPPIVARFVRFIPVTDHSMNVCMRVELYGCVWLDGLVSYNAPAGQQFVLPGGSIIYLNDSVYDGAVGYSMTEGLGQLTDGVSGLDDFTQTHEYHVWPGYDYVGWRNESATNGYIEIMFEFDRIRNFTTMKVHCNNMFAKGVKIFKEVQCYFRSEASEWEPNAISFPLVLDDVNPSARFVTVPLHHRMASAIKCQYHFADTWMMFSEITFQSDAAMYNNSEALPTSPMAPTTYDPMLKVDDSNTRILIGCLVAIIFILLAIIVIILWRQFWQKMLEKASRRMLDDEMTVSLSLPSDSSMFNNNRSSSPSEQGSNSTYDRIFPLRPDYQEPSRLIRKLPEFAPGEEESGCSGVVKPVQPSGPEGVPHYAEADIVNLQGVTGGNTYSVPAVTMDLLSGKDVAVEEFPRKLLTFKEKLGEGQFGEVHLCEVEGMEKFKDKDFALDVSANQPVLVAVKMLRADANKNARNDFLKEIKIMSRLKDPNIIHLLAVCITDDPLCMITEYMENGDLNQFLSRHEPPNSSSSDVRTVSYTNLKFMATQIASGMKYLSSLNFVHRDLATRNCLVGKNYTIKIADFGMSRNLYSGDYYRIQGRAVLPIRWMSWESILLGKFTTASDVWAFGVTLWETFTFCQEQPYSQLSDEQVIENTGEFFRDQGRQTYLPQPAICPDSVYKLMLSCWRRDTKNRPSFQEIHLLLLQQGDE

[4] = target: T2, Activin receptor type-1B (Homo sapiens) (UniProt P36896); experiment: Residual activity of ACVR1B at 10 uM by microplate scintillation counting
T2 sequence (whole entry): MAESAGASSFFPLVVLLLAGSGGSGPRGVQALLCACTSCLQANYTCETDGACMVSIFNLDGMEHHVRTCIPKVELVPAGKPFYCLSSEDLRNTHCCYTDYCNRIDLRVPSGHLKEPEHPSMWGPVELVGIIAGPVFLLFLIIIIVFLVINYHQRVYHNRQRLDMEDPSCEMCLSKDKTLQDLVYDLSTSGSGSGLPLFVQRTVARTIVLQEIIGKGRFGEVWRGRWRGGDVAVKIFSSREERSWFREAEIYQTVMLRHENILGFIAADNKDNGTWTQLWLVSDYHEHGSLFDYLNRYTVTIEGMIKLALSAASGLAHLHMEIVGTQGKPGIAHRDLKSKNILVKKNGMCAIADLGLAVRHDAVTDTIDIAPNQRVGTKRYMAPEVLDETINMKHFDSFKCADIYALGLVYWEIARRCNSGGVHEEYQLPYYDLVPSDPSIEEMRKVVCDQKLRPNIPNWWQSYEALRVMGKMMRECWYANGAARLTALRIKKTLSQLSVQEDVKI

[5] = target: T3, Serine/threonine-protein kinase Nek11 (Homo sapiens) (UniProt Q8NG66); experiment: Residual activity of NEK11 at 10 uM by microplate scintillation counting
T3 sequence (whole entry): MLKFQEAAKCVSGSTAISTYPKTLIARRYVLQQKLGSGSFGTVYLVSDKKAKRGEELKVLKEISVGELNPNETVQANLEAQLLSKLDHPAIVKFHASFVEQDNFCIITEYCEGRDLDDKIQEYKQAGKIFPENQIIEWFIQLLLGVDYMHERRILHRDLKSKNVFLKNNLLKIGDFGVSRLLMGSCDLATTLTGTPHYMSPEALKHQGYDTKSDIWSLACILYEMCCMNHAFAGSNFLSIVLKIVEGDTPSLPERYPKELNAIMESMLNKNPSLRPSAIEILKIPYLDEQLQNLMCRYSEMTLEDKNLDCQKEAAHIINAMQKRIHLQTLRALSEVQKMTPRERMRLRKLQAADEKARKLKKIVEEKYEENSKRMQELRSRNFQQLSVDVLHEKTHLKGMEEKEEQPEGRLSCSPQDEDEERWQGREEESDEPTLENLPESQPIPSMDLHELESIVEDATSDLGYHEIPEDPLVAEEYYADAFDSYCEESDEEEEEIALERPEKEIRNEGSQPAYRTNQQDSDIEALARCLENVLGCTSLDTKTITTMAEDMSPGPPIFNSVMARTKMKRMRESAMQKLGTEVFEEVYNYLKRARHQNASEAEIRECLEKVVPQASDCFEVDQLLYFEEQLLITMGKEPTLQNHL

[6] = target: Dual specificity tyrosine-phosphorylation-regulated kinase 1B (Homo sapiens) (UniProt Q9Y463); experiment: Residual activity of DYRK1B at 10 uM by microplate scintillation counting
[7] = system: Epidermal growth factor receptor (Homo sapiens), P00533 [L858R]; experiment: Residual activity of EGFR L858R mutant at 1 uM by microplate scintillation counting
[8] = target: Mitogen-activated protein kinase 1 (Homo sapiens) (UniProt P28482); experiment: Residual activity of ERK2 at 1 uM by microplate scintillation counting
[9] = target: Activin receptor type-1-like (Homo sapiens) (UniProt P37023); experiment: Residual activity of ACV-RL1 at 1 uM by microplate scintillation counting
[10] = system: Epidermal growth factor receptor (Homo sapiens), P00533 [L858R]; experiment: Residual activity of EGFR L858R mutant at 10 uM by microplate scintillation counting
[11] = target: SRSF protein kinase 2 (Homo sapiens) (UniProt P78362); experiment: Residual activity of SRPK2 at 10 uM by microplate scintillation counting
[12] = target: Cyclin-dependent kinase 1/cyclin B1 (Homo sapiens) (UniProt P06493+P14635); experiment: Residual activity of CDK1/CyclinB1 at 0.1 uM by microplate scintillation counting; type: protein-complex assay
Cyclin-dependent kinase 1/cyclin B1 (Homo sapiens), sequence (P06493 whole entry, looked up): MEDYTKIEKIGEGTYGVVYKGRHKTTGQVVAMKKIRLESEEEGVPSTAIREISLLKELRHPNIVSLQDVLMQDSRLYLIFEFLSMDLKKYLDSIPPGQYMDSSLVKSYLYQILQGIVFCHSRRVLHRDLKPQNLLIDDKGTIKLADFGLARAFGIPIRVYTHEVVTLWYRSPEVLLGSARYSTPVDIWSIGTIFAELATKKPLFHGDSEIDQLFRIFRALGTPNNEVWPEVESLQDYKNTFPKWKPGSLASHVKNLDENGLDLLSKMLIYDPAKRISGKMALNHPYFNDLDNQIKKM
Cyclin-dependent kinase 1/cyclin B1 (Homo sapiens), sequence (P14635 whole entry, looked up): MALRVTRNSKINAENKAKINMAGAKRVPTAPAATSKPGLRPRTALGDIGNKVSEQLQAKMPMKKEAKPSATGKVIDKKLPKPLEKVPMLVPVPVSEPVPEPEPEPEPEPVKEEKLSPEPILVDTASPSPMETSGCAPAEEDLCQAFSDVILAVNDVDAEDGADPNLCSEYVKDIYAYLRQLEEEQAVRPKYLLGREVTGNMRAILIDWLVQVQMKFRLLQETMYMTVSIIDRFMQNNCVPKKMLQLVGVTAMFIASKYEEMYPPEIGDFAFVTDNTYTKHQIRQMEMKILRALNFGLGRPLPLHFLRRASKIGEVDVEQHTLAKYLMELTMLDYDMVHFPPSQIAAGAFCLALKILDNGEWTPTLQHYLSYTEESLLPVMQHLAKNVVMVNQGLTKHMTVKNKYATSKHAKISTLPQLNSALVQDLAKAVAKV

Mitogen-activated protein kinase 14 (Homo sapiens), sequence (Q16539 whole entry, the tested form may be a part): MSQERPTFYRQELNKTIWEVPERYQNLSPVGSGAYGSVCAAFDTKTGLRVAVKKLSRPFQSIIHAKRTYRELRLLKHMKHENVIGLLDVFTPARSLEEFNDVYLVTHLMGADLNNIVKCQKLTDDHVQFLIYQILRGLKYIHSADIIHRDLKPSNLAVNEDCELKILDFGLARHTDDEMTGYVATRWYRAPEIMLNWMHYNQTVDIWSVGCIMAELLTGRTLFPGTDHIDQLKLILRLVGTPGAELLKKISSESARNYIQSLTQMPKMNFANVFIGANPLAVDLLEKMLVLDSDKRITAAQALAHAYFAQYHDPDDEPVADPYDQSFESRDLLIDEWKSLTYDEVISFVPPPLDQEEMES
Activin receptor type-1-like (Homo sapiens), sequence (P37023 whole entry): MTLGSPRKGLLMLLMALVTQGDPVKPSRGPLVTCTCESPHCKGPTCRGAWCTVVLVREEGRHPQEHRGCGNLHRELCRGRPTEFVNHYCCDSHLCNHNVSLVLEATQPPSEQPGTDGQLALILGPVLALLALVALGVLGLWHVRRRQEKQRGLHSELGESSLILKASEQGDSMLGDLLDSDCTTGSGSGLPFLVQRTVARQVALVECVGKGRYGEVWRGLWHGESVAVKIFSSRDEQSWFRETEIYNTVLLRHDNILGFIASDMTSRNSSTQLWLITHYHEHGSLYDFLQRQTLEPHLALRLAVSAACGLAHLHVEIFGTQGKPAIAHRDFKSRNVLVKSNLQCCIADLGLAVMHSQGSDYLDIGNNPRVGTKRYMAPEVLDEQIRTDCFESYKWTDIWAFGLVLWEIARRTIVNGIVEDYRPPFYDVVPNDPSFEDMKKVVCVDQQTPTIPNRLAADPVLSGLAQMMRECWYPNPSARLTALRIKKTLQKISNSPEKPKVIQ
SRSF protein kinase 2 (Homo sapiens), sequence (P78362 whole entry, looked up): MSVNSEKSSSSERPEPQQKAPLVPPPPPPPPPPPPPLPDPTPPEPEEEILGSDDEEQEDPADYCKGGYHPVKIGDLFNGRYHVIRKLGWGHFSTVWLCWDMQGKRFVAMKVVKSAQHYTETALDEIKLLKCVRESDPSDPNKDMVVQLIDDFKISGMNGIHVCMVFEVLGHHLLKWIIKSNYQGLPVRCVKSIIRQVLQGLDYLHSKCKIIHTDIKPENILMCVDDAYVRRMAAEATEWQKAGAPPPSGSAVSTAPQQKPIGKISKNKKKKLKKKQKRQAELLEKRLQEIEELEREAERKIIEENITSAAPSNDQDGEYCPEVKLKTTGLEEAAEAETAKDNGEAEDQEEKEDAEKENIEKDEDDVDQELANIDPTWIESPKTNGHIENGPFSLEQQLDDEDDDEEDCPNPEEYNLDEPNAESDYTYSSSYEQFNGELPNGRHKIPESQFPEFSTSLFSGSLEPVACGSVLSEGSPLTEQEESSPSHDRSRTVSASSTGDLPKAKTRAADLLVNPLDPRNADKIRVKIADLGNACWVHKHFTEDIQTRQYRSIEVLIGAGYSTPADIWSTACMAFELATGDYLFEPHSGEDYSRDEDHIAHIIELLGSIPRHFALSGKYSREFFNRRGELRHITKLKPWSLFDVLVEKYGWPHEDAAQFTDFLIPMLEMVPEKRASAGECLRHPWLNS
Dual specificity tyrosine-phosphorylation-regulated kinase 1B (Homo sapiens), sequence (Q9Y463 whole entry, looked up): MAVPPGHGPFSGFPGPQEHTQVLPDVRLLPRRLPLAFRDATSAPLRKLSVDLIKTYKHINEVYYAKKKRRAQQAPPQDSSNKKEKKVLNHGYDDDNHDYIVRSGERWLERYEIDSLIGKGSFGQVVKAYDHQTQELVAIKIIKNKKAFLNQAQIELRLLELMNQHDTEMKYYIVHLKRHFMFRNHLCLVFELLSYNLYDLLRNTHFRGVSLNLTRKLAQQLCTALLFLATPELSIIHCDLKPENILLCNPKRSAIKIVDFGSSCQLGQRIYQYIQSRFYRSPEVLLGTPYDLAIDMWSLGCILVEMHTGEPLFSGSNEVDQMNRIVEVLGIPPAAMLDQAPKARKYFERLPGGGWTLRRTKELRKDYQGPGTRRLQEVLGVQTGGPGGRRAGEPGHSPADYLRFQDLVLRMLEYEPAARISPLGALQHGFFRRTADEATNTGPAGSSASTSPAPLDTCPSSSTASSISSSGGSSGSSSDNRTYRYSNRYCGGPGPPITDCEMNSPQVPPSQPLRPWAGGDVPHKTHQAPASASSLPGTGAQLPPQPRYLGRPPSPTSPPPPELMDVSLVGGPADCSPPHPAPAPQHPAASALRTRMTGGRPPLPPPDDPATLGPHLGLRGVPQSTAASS
Dual specificity mitogen-activated protein kinase kinase 1 (Homo sapiens), sequence (Q02750 whole entry): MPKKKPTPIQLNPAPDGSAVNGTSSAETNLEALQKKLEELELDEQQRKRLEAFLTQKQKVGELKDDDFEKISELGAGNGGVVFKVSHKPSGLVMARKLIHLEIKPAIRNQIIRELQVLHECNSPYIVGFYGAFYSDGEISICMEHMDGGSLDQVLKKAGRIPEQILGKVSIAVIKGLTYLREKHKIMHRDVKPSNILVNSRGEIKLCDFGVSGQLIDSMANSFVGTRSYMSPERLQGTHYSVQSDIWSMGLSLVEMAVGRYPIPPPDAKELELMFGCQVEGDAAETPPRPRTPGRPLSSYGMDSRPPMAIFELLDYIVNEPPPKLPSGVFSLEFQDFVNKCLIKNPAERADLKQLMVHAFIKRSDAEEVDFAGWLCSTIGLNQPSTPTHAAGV
Mitogen-activated protein kinase 1 (Homo sapiens), sequence (P28482 whole entry): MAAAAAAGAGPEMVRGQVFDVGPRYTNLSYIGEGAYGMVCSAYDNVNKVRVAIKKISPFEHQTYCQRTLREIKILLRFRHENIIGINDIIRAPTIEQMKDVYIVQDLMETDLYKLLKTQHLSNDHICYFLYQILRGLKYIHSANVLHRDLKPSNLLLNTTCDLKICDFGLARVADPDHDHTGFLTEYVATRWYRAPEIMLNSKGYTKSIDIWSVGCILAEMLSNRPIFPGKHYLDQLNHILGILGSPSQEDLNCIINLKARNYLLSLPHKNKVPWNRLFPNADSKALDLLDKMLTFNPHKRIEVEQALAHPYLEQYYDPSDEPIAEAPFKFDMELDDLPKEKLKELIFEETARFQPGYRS

`COc1cc2c(Oc3ccc(-c4nc5ccccc5s4)cc3F)ncnc2cc1OCCCN1CCN(C)CC1` gave a residual activity [1] of 3%, a residual activity [2] of 320% and a residual activity [3] of 30%. It also gave a residual activity [4] of 109%, a residual activity [5] of 83% and a residual activity [6] of 194%. It also gave a residual activity [7] of 80%, a residual activity [8] of 98% and a residual activity [9] of 92%. The residual activity [10] was 24%, the residual activity [11] was 100% and the residual activity [12] was 87%.
With `COc1cc2c(Oc3ccc(-c4nc5ccccc5s4)cc3)ncnc2cc1OCCCN1CCCC1` the residual activity [1] was 15%, the residual activity [2] was 325% and the residual activity [3] was 42%. It also gave a residual activity [4] of 104%, a residual activity [5] of 81% and a residual activity [6] of 136%. The residual activity [7] was 72%, the residual activity [8] was 82% and the residual activity [9] was 92%. The residual activity [10] was 46%, the residual activity [11] was 128% and the residual activity [12] was 84%.
`COc1cc2c(Oc3ccc(-c4nc5ccccc5s4)cc3)ncnc2cc1OCCCN1CCN(C)CC1` gave a residual activity [1] of 26%, a residual activity [2] of 327% and a residual activity [3] of 25%. It also gave a residual activity [4] of 93%, a residual activity [5] of 113% and a residual activity [6] of 224%. The residual activity [7] was 63%, the residual activity [8] was 91% and the residual activity [9] was 78%. The residual activity [10] was 22%, the residual activity [11] was 115% and the residual activity [12] was 90%.
